# Like-named read-outs stand apart in the source and are kept apart here.
# What was measured:
# [1] = test system: various infectious organisms; assay: Activity against organisms, overall (Agar Screening Test and/or Penicillin Button Assay Test); format: cell-based; conditions: organisms (a) to (d)
# Description: A. Agar Screening Test for Activity.
# B. Penicillin Button Assay Test.
# [2] = Storage stability test, melting point, appearance and odor before and after aging; format: physicochemical; conditions: for Melting point, after aging: air oven, closed bottles
# Description: (§1) D. Storage Stability Tests.
# In addition to the titration test, other tests were run. The melting point of the compound was measured both before and after aging. Little or no change in melting point indicates good storage stability. Further, observations were made upon the appearance and odor of the compounds before and after aging.
# (§2) This is important if the compounds are going to be used in disinfectant solutions, and stored and marked without a significant loss in activity against organisms. […] The compounds were aged in an air oven, while in closed bottles. The test methods used were previously described.
# [3] = Acute oral toxicity test; conditions: rat, in vivo, rats
# Description: (§3) The thiocarbamylsulfenamide compounds were also evaluated as to their oral, dermal, and inhalation toxicity. The techniques employed are specified in Section 362.116 of the Regulations for the Enforcement of the Federal Insecticide, Fungicide, and Rodenticide Act, Interpretation 18 (Revised, Federal Register, April 4, 1969), or in the Federal Hazardous Substances Act. (Revised, Federal Register, September 17, 1964). Acute oral LD50, acute dermal LD50, and acute inhalation LC50 were determined; LD50 being the lethal dose for 50% of the test animals and LC50 being the lethal concentration for 50% of the test animals. Acute oral and acute inhalation tests were run using rats, while acute dermal testing was run using rabbits.
# (§4) Two of the compounds evaluated for their activity against organisms (compounds A and G respectively in Example V) were tested for their toxicity following the procedure previously given in the specification.
# [4] = Acute inhalation toxicity test; format: in vivo, rats; conditions: rat, in vivo, inhaled or intranasal; rats, inhalation
# Description: as §3, §4
# [5] = test system: rats; assay: Acute inhalation toxicity test; format: in vivo; conditions: classification according to federal regulations
# Description: as §3, §4
# [6] = Storage stability test, purity by titration before and after aging; format: physicochemical; conditions: for Percent Purity, after aging: air oven, closed bottles
# Description: as §1
# Thiocarbamylsulfenamide compounds were tested for their stability upon storage at room temperature and after mild thermal aging. The principle test employed consisted of measuring the purity of a sample before and after aging. This was done by titrating a sample solution of the compound using potassium iodide, KI, and sodium thiosulfate, Na2 S2 O3. A 0.5 to 1.0 gram sample of the compound is weighed out and dissolved in 10 milliliters of chloroform. […] The calculations are: [formula] The value obtained is the percent by weight of the sample that is the desired thiocarbamylsulfenamide. The titration is run on the sample before and after aging. The change in purity of the compound indicates its decomposition upon storage.
# as §2
# [7] = Acute dermal toxicity test; format: in vivo, rabbits; conditions: rabbit, in vivo, topical or ocular; rabbits, dermal
# Description: as §3, §4
# [8] = test system: rabbits; assay: Acute dermal toxicity test; format: in vivo; conditions: classification according to federal regulations
# Description: as §3, §4
# [9] = test system: various infectious organisms; conditions: U.S. Pat. No. 2,692,862; cited from earlier work
# [10] = before aging, sample for 50 °C, 10 days
# [11] = before aging, sample for 80 °C, 16 hrs.
smiles,measurement,setting,value
"CCCCN(CCCC)C(=S)SN(C1CCCCC1)C1CCCCC1 [C, N,N-dibutylthiocarbamyl-N',N'-dicyclohexylsulfenamide]",activity against organisms (in words),[1],no activity
"CN(C)C(=S)SN(C1CCCCC1)C1CCCCC1 [Compound A, N,N-dimethylthiocarbamyl-N',N'-dicyclohexylsulfenamide]",activity against organisms (in words),[1],good activity against organisms
same,"Amine odor, after aging","[2]; 50 °C, 10 days",slight
same,"Melting point, after aging","[2]; 50 °C, 10 days",85-87 °C
same,"Amine odor, after aging","[2]; 80 °C, 16 hrs.",slight
same,"Color, after aging","[2]; 80 °C, 16 hrs.",white
same,"Melting point, after aging","[2]; 80 °C, 16 hrs.",83-85 °C
same,"Amine odor, before aging","[2]; sample for 50 °C, 10 days",slight
same,"Color, before aging","[2]; sample for 50 °C, 10 days",white
same,"Melting point, before aging","[2]; sample for 50 °C, 10 days",85-87 °C
same,"Amine odor, before aging","[2]; sample for 80 °C, 16 hrs.",slight
same,"Color, before aging","[2]; sample for 80 °C, 16 hrs.",white
same,"Melting point, before aging","[2]; sample for 80 °C, 16 hrs.",84-85 °C
same,LD50,[3],1100 mg/kg
same,LC50,[4],78 µg/mL
same,toxicity by inhalation (in words),[5],non-toxic
same,"Percent Purity, after aging","[6]; after aging, 50 °C, 10 days",99%
same,"Percent Purity, after aging","[6]; after aging, 80 °C, 16 hrs.",97%
same,"Percent Purity, before aging",[6]; [10],99%
same,"Percent Purity, before aging",[6]; [11],100%
same,LD50,[7],> 10000 mg/kg
same,toxicity by dermal absorption (in words),[8],non-toxic
"CCN(CC)C(=S)SN(C1CCCCC1)C1CCCCC1 [Compound B, N,N-diethylthiocarbamyl-N',N'-dicyclohexylsulfenamide]",activity against organisms (in words),[1],good activity
"S=C(SN1CCOCC1)N1CCOCC1 [Compound G, N-oxydiethylenethiocarbamyl-N'-oxydiethylenesulfenamide]",activity against organisms (in words),[1],good activity against organisms
same,"Amine odor, after aging","[2]; 80 °C, 16 hrs.",slight
same,"Melting point, after aging","[2]; 80 °C, 16 hrs.",135-139 °C
same,"Amine odor, before aging","[2]; sample for 80 °C, 16 hrs.",slight
same,"Color, before aging","[2]; sample for 80 °C, 16 hrs.",white
same,"Melting point, before aging","[2]; sample for 80 °C, 16 hrs.",136-139 °C
same,LD50,[3],5100 mg/kg
same,LC50,[4],164 µg/mL
same,toxicity by inhalation (in words),[5],non-toxic
same,"Percent Purity, before aging",[6],98
same,"Percent Purity, after aging",[6]; 16 h,98
same,LD50,[7],> 10000 mg/kg
same,toxicity by dermal absorption (in words),[8],non-toxic
"CN(C)C(=S)SNc1ccccc1 [Compound H, N,N-dimethylthiocarbamyl-N'-phenylsulfenamide]",activity against organisms (in words),[1],good activity
"CCCCCCCCCCCCCCCCCCCCN(CCCCCCCCCCCCCCCCCCCC)C(=S)SN(C1CCCCC1)C1CCCCC1 [D, N,N-dieicosylthiocarbamyl-N',N'-dicyclohexylsulfenamide]",activity against organisms (in words),[1],no activity
"S=C(SN(C1CCCCC1)C1CCCCC1)N1CCOCC1 [E, N-oxydiethylenethiocarbamyl-N',N'-dicyclohexylsulfenamide]",activity against organisms (in words),[1],almost no activity
"CCN(CC)C(=S)SNc1ccccc1 [I, N,N-diethylthiocarbamyl-N'-phenylsulfenamide]",activity against organisms (in words),[1],very little activity
"CN(C)SC(=S)N(C)C [J, N,N-dimethylthiocarbamyl-N',N'-dimethylsulfenamide, reference compound]","Amine odor, after aging","[2]; 50 °C, 10 days",strong
same,"Color, after aging","[2]; 50 °C, 10 days",yellow
same,"Melting point, after aging","[2]; 50 °C, 10 days",34-39 °C
same,"Amine odor, before aging","[2]; sample for 50 °C, 10 days",slight
same,"Melting point, before aging","[2]; sample for 50 °C, 10 days",49-51 °C
same,known activity against organisms (in words),[9],known to have activity against organisms
same,"Percent Purity, after aging","[6]; after aging, 50 °C, 10 days",77%
same,"Percent Purity, before aging",[6]; [10],96%
"CC(C)N(SC(=S)N(C)C)C(C)C [K, N,N-dimethylthiocarbamyl-N',N'-diisopropylsulfenamide, reference compound]","Amine odor, after aging","[2]; 80 °C, 16 hrs.",strong
same,"Melting point, after aging","[2]; 80 °C, 16 hrs.",53-54 °C
same,"Amine odor, before aging","[2]; sample for 80 °C, 16 hrs.",mild
same,"Color, before aging","[2]; sample for 80 °C, 16 hrs.",white
same,"Melting point, before aging","[2]; sample for 80 °C, 16 hrs.",56-57 °C
same,known activity against organisms (in words),[9],known to have activity against organisms
same,"Percent Purity, after aging","[6]; after aging, 80 °C, 16 hrs.",89%
same,"Percent Purity, before aging",[6]; [11],93%

# From patent US4006251A, “Bactericidal and fungicidal composition containing thiocarbanyl sulfenamides” (The B. F. Goodrich Company, priority 1973, dated 1977)
